In brackets after ≈: the same amount, converted by molar mass. Residues, ends and D or L forms follow the SMILES beside them. *: point of attachment. Octanoyl = CCCCCCCC(=O)*
Key:
S. aureus PCM1650 = format: cell-based, Staphylococcus aureus; settings: PCM1650, 24 h
In short: (§1)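 MIC, serial microdilution (CLSI). Bacteria: MHB, 37 °C, 24 h. Fungi: RPMI-1640/MOPS + 2% glucose, 35 °C, 24 h. OD600 read; % growth inhibition vs untreated control (100%) and medium-only blank (0%). n = 3.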

S. aureus PCM2054 = format: cell-based, Staphylococcus aureus; settings: PCM2054, 24 h
In short: as §1

E. coli PCM2057 = format: cell-based, Escherichia coli; settings: PCM2057, 24 h
In short: as §1

C. albicans PCM2566 = format: cell-based, Candida albicans; settings: PCM2566, 24 h
In short: as §1

C. krusei CCM8271 = format: cell-based, Candida krusei; settings: CCM8271, 24 h
In short: as §1

C. parapsilosis CCM 8260 = format: cell-based, Candida parapsilosis; settings: CCM 8260, 24 h
In short: as §1

[1] = test system: human breast cancer cells (MCF-7 line, ATCC); assay: MTT cytotoxicity assay; format: cell-based; settings: IC50 against HaCaT divided by IC50 for MCF-7
Description: (§2) The prepared plates were further incubated for 48 h. […] The control cell viability was assumed to be 100%. Three independent experiments were carried out in three repetitions.

[2] = test system: human prostate cancer cells (PC3 line, ATCC); assay: MTT cytotoxicity assay; format: cell-based; settings: IC50 against HaCaT divided by IC50 for PC3
Description: as §2

POPC liposomes = assay: CD, α-helix content in POPC liposomes; format: physicochemical; settings: 25 °C, peptide 0.15 mg/mL, 1.3 mM POPC
Description: (§3) Large unilamellar vesicles (LUV) were obtained by extrusion of MLV liposomes through polycarbonate membrane filters with a pore diameter of 100 nm (Whatman International Ltd., Kent, UK) using a mini-extruder (Avanti Polar Lipids, Inc., Alabaster, AL, USA).
(§4) CD experiments were carried out at 25 °C using a Jasco J-815 spectropolarimeter in the wavelength range 185–260 nm. The concentration of the lipopeptides was 0.15 mg/mL. The CD spectra were recorded in water, PBS (pH 7.4), 1.3 mM POPC and 1.3 mM POPG. The results are plotted as the mean molar ellipticity per one amino acid residue (MRME, deg cm^2 dmol^−1) as a function of the wavelength (nm). Additionally, we performed a conformational analysis of the selected compounds in the presence of S. aureus cells. […] The mixtures were then incubated for 2 h before recording the CD spectra.
(§5) The percentage of the α-helical structure was calculated based on the mean molar ellipticity at 222 nm using the formula: fH=θ222−3000/−36000−3000·100% where θ222 corresponds to the value of the mean molar ellipticity at a wavelength of 222 nm.

POPG liposomes = assay: CD, α-helix content in POPG liposomes; format: physicochemical; settings: 25 °C, peptide 0.15 mg/mL, 1.3 mM POPG, from ellipticity at 222 nm
Description: as §3, §4, §5

S. aureus cells = assay: CD, α-helix content in the presence of S. aureus cells; format: physicochemical, Staphylococcus aureus; settings: for α-Helix percentage, Staphylococcus aureus: peptide 0.15 mg/mL, phosphate buffer 10 mM pH 7.0, 2 h incubation
Description: as §4, §5

POPG LUVs = assay: Isothermal titration calorimetry, binding to POPG LUVs; settings: ITC, 25 °C, 0.05 or 0.07 mM peptide titrated with 1.3 or 1.8 mM POPG LUVs; one set of sites model (C10-LL-I: two sets of sites, first line)
Description: as §3
The thermodynamic parameters of the interactions of the lipopeptides with POPG and POPC liposomes were determined by isothermal titration calorimetry (ITC). Measurements were performed at 25 °C using an AutoITC microcalorimeter (MicroCal Inc., Northampton, MA, USA) with a 1.4491 mL sample and reference cells. The experiment consisted in the titration of a buffered peptide solution with a concentration of 0.05 and/or 0.07 mM with a buffered solution containing POPG or POPC LUVs with a lipid concentration of 1.3 and 1.8 mM (10.02 µL; 29 injections, 2 µL for the first injection only), as it was described previously. The result of the titration was a thermogram showing a series of peaks corresponding to the titration steps. A titration curve was obtained after integration of the peak areas. The obtained isotherms were fitted to the “one set of sites” or “two sets of sites” models available in the ORIGIN 7.0 (MicroCal Inc., Northampton, MA, USA), which made it possible to determine the enthalpy (ΔH), the binding constant (KITC) and the stoichiometry (N) of the interactions between the lipopeptide and the lipids. The following formula was used to calculate the entropy change (ΔS) and the Gibbs free energy (ΔG): ΔG=−RTln(55.5KITC)=ΔH−TΔS where: factor 55.5 is the molar concentration of water, R is the gas constant (1.986 cal·mol^−1·K^−1), and T is the absolute temperature.

Q: What does the source list for `CCCCCCCC(=O)N[C@H](C(=O)N[C@@H](CCCCN)C(=O)N[C@@H](CCCCN)C(=O)N[C@H](C(=O)N[C@@H](CC(C)C)C(=O)N[C@@H](CO)C(=O)N[C@@H](CCCCN)C(=O)N[C@H](C(=O)N[C@@H](CCCCN)C(=O)N[C@@H](CCCCN)C(=O)N[C@@H](CC(C)C)C(=O)N[C@@H](CC(C)C)C(=O)N[C@@H](CCCCN)C(N)=O)[C@@H](C)CC)[C@@H](C)CC)[C@@H](C)CC` [C8-LK6] (Octanoyl-IKKILSKIKKLLK-NH2)?
A: MIC, S. aureus PCM1650 (S. aureus PCM1650): 12.5 µg/mL (≈ 7.45 µM); MIC, S. aureus PCM2054 (S. aureus PCM2054): 12.5 µg/mL (≈ 7.45 µM); MIC, E. coli PCM2057 (E. coli PCM2057): >50 µg/mL; MIC, C. albicans PCM2566 (C. albicans PCM2566): 12.5 µg/mL (≈ 7.45 µM); MIC, C. krusei CCM8271 (C. krusei CCM8271): 6.25 µg/mL (≈ 3.72 µM); MIC, C. parapsilosis CCM 8260 (C. parapsilosis CCM 8260): 6.25 µg/mL (≈ 3.72 µM); SI MCF-7 [1]: 3.44; SI PC3 [2]: 1.50; θ222/θ208, POPC (POPC liposomes): 0.82; α-Helix percentage, POPC (POPC liposomes; from ellipticity at 222 nm): 46%; α-Helix percentage, POPG (POPG liposomes): 24%; θ222/θ208, Staphylococcus aureus (S. aureus cells; OD0.1 bacterial suspension): 1.26; α-Helix percentage, Staphylococcus aureus (S. aureus cells; OD0.1 bacterial suspension): 22%; θ222/θ208, Staphylococcus aureus (S. aureus cells; OD0.2 bacterial suspension): 0.89; α-Helix percentage, Staphylococcus aureus (S. aureus cells; OD0.2 bacterial suspension): 17%; θ222/θ208, Staphylococcus aureus (S. aureus cells; OD0.5 bacterial suspension): 0.88; α-Helix percentage, Staphylococcus aureus (S. aureus cells; OD0.5 bacterial suspension): 18%; α-helical structure in the presence of bacterial cells (S. aureus cells; S. aureus, various bacterial cell counts of the inoculum): 17–22%; pKITC, POPG (POPG LUVs): 6.31 ± 0.34

From article PMC9959048, “Lipidation of Naturally Occurring α-Helical Antimicrobial Peptides as a Promising Strategy for Drug Design” (International Journal of Molecular Sciences, 2023)
